Assay results published in patent US20060276393A1, “Novel compositions for preventing and treating neurodegenerative and blood coagulation disorders” (Sirtris Pharmaceuticals, Inc., priority 2005, published 2006).

Legend:
Human 293 = test: Survival of 293 cells; settings: 50 micromolar
Excerpt: The number of live cells each time point was counted using a Coulter counter.

recombinant dSir2 = target: T1, recombinant dSir2 (Drosophila melanogaster, UniProt Q9VK34); test: dSir2 deacetylation assay; type: biochemical, D. melanogaster; settings: dose-dependent; Fluor de Lys
T1 sequence (Q9VK34 1-823): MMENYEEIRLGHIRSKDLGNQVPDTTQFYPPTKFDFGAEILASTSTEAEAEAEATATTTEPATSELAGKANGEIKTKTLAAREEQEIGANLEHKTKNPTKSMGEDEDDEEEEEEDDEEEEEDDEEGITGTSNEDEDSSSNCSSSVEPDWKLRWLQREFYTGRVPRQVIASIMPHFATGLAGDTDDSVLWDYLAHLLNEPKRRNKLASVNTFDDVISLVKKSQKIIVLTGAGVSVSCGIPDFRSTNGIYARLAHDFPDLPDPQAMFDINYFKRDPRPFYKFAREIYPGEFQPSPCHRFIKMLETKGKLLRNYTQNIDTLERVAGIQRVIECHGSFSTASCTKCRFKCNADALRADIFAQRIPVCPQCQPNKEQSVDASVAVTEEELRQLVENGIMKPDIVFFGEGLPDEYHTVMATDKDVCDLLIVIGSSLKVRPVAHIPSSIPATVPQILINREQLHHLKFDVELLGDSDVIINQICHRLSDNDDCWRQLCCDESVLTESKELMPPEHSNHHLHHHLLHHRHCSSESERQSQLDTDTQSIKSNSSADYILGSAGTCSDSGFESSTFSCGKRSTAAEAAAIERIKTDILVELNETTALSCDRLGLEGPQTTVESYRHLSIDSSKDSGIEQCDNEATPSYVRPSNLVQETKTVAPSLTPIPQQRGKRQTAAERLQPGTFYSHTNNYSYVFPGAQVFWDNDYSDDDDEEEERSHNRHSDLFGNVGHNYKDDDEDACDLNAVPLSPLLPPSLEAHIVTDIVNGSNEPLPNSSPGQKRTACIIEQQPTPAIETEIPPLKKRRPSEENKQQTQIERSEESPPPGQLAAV

recombinant GST-Sir2 = recombinant GST-Sir2 (Saccharomyces cerevisiae, UniProt P06700); test: Sir2 deacetylation rate assay; type: biochemical, S. cerevisiae; settings: in vitro dose-response
Procedure: Average lifespan for wild type, 22.9 generations, quercetin, 23.4; piceatannol.
His6-tagged recombinant SIRT1 and GST-tagged recombinant Sir2 were prepared as previously described^26. From 0.1 to 1 μg of SIRT1 and 1.5 μg of Sir2 were used per deacetylation assay (in 50 μl total reaction) as previously described^26. SIRT1 assays and certain of those for Sir2 employed the p53-382 acetylated substrate (° Fluor de Lys-SIRT1′, BIOMOL) rather than FdL.
Themed compound libraries (BIOMOL) were used for primary and secondary screening. Most polyphenol compounds were dissolved at 10 mM in dimethylsulfoxide (DMSO) on the day of the assay. For water soluble compounds and negative controls, 1% v/v DMSO was added to the assay. In vitro fluorescence assay results were read in white ½-volume 96-well microplates (Coming Costar 3693) with a CytoFluor™. II fluorescence plate reader (PerSeptive Biosystems, Ex. 360 nm, Em. 460 nm, gain=85). HeLa cells were grown and the cellular deacetylation assays were performed and read, as above, but in full-volume 96-well microplates (Coming Costar 3595). […] Calculation of net fluorescence increases included subtraction of a blank value, which in the case of Sir2 was obtained by omitting the enzyme from the reaction and in the case of SIRT1 by adding an inhibitor (200 μM suramin or 1 mM nicotinamide) to the reaction prior to the acetylated substrate. […]

recombinant SIR-2.1 = target: T2, recombinant SIR-2.1 (Caenorhabditis elegans, UniProt Q21921)
T2 sequence (Q21921 1-607): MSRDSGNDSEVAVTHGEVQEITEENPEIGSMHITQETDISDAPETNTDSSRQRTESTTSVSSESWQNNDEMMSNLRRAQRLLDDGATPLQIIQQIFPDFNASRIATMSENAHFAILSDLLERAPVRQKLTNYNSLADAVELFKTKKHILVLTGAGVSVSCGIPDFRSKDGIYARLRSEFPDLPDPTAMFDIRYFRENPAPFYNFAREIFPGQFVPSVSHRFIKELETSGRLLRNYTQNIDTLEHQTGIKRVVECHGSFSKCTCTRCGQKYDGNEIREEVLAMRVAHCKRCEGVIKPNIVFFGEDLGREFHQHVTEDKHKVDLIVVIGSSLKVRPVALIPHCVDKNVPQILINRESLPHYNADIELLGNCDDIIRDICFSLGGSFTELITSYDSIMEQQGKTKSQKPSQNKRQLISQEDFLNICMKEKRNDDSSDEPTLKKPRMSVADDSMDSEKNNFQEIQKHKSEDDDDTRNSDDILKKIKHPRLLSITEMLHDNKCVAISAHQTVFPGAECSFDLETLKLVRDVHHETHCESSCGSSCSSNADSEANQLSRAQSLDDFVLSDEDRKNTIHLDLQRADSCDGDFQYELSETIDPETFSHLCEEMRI
Procedure: STACs were dissolved at 10 mM in dimethylsulfoxide (DMSO) the day of the assay. […] Drosophila S2 cells were grown in Schneider media with fetal calf serum at 23-28° C., seeded at 9×10^4 cells/well, grown overnight and then exposed to 1 μM TSA, 500 μM polyphenols, and 200 μM FdL for 2 hr. Deacetylation of FdL with lysate from whole cells was determined as described^4. Unless otherwise indicated all initial rate measurements were means of three or more replicates obtained with single incubation times, at which point 5% or less of the substrate initially present was deacetylated.

S. cerevisiae = test: Yeast chronological lifespan; type: cell-based; settings: 10 μM or 100 μM, nutrient deprived state

Chain of recombinant GST-Sir2 (P06700 whole entry): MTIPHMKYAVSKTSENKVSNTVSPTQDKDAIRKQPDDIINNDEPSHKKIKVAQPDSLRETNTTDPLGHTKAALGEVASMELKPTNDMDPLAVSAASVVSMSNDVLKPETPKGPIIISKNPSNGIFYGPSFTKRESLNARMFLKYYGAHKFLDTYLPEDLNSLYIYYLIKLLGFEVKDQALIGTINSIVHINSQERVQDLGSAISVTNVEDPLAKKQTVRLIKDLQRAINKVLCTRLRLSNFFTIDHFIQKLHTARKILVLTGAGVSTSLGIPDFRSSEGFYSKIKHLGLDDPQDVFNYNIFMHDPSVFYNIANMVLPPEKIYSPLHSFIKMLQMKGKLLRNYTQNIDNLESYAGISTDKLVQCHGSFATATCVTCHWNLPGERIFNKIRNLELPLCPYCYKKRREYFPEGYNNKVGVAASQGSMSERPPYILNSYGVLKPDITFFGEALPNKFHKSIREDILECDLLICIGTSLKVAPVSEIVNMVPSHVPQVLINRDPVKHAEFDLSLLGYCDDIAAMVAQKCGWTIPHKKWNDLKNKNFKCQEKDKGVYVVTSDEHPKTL

Oc1ccc(/C=C/c2cc(O)cc(O)c2)cc1 [Resveratrol, 3,5,4′-Trihydroxy-trans-stilbene]
Survival of 293 cells (Human 293; 0 h): 100% | Survival of 293 cells (Human 293; 48 h): 5% | Survival of 293 cells (Human 293; 96 h): 0% | stimulated deacetylation (maximum) (recombinant dSir2): ≤ 2.4 fold | concentrations at which inhibition of Sir2 was seen (recombinant GST-Sir2): > 100 µM | optimum concentration of activator for Sir2 stimulation (recombinant GST-Sir2): 2 to 5 µM | Km of SIR-2.1 for the co-substrate NAD+ (recombinant SIR-2.1; 100 μM resveratrol, 10 μM Fluor de Lys): lowered the Km of SIR-2.1 | stimulated deacetylation (maximum) (recombinant SIR-2.1; dose-dependent, Fluor de Lys): up to 2.5 fold | chronological lifespan (S. cerevisiae): failed to extend chronological lifespan
